Laboratory results reported in patent EP4692089A1, “NITROGEN-CONTAINING HETEROCYCLIC COMPOUND AS AAK1 INHIBITOR” (Alicorn Pharmaceutical Co., Ltd., priority 2023, dated 2024).
pEC50, pIC50: −log10 of the molar value. Structures can show the parent of a compound that is named as a salt.

What was measured:
AAK1 = biological target: T1, AAK1 (Homo sapiens, UniProt Q2M2I8); test: Effect on AP2M1 phosphorylation in 293T cells co-transfected with AAK1 and AP2M1 (Western blot, anti-p-AP2M1); assay type: cell-based; conditions: p-AP2M1 level, incubated 3 h
T1 construct: HA; expressed in transfected cells; host or cells: 293T cells
T1 sequence (Q2M2I8 whole entry): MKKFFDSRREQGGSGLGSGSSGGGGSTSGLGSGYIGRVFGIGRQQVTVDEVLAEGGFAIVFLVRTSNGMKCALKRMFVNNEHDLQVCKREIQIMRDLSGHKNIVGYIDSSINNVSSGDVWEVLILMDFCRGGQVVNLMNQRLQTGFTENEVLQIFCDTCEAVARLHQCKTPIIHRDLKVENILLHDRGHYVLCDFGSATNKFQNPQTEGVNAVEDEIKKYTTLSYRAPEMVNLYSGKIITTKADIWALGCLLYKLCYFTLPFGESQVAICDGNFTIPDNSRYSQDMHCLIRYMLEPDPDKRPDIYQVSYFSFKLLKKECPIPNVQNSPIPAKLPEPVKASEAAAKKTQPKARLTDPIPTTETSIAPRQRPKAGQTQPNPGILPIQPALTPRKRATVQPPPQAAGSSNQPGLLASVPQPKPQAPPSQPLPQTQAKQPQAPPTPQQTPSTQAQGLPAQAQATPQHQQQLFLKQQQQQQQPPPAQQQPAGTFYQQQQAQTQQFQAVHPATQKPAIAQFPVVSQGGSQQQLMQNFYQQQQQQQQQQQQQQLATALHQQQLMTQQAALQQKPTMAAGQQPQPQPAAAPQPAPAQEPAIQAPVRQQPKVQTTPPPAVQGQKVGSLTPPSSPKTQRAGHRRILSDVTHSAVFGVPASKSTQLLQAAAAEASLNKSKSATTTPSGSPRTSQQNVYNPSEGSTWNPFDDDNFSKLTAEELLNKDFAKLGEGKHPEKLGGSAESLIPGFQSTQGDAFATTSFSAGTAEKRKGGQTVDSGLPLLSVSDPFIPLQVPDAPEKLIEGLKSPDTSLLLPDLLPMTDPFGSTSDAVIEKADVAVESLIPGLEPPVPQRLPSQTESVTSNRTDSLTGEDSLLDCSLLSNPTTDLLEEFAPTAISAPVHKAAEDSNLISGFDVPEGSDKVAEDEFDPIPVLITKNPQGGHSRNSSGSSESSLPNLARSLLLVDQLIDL
From the text: Experimental objective: The objective of this test example is to determine the effect of compounds on AP2M1 phosphorylation in cells.
Background principle: Adaptor-associated kinase 1 (AAK1), also known as AP2-associated kinase 1, is a 104 kDa serine/threonine kinase. AAK1 interacts with the adaptor protein 2 (AP2) complex and phosphorylates the threonine residue in the micro-subunit of AP2 (AP2M1), thereby increasing its binding affinity for certain tyrosine-based or dileucine-based sorting signals of some membrane receptors. The inhibitory effect of compounds on AAK1 was evaluated by detecting the phosphorylation level of AP2M1 in cells, so as to screen candidate compounds.
On the second day, each T25 flask was co-transfected with 16 µg of plasmids (1 µg of AAK1/HA/pIRES and 15 µg of Flag/AP2MI/pcDNA) using a Lip2000 transfection reagent. On the third day, the cells were digested and resuspended, centrifuged at 1000 rpm for 5 minutes, and then seeded into 24-well plates at 450 µl per well (2 × 10^5 cells/well). Gradient dilutions of the compounds to be tested were prepared, 50 µl was added to each well, mixed thoroughly, and incubated at 37°C for 3 h. DMSO was set as a control, and cells without plasmid transfection were set as a blank control. After incubation, the cells were collected and washed twice with PBS. The cells were lysed on ice for 30 minutes using a cell lysis buffer containing the protease inhibitor PMSF. The concentration of protein samples was determined using a BCA kit. Protein electrophoresis: The voltage for the stacking gel was set at 60 V, and that for the separating gel was set at 120 V. After electrophoresis, electrotransfer was initiated. Electrotransfer conditions were set at 250 mA for 2 h. Blocking with 5% BSA was performed for 1 h. A specific primary antibody, anti-p-AP2M1, was added, and incubation was carried out overnight at 4°C on a shaker. Washing with TBST was conducted 4 times, with 2.5 minutes each time. A secondary antibody was incubated on a shaker at room temperature for 1 h. Washing with TBST was conducted 4 times, with 2.5 minutes each time. ECL was used for development to detect the expression level of p-AP2M1. Western blot bands were processed and converted using Image J and GraphPad software to calculate IC50.
IC50 (half maximal inhibitory concentration) refers to the half-inhibitory concentration of the measured antagonist. It can indicate the concentration of a certain drug or substance (inhibitor) that achieves half of the inhibition effect on certain biological processes (or certain substances involved in these processes, such as enzymes, cellular receptors, or microorganisms).

AAK1 (30-330) protein [1] = biological target: T2, AAK1 (30-330) protein (Homo sapiens, UniProt Q2M2I8); test: CETSA test of binding ability to AAK1 protein (Western blot)
T2 construct: (His)6x (N); TEV protease cleavage site (N); made in house; host or cells: Escherichia coli BL21(DE3)
T2 sequence (Q2M2I8 30-330): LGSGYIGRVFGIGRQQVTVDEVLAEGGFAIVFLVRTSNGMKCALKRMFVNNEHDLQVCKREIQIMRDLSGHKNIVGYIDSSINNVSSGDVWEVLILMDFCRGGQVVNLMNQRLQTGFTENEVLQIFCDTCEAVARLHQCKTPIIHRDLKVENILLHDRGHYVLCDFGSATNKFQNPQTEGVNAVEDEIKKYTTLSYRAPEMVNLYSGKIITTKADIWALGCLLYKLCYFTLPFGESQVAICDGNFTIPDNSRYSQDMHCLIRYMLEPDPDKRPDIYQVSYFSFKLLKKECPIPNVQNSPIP
Method: Experimental objective: To detect the binding ability of compounds to AAK1 protein by means of a CETSA experiment.
Background principle: The CETSA experiment is a molecular detection means for measuring the affinity between drugs and target proteins. […] When a candidate drug is co-incubated with a target protein, if the candidate drug is an inhibitor of AAK1, it can bind to AAK1. […] On the contrary, the stability of the AAK1 protein after heating will be poorer, and the amount of the detected protein will be lower. In this way, the binding ability of the drug to the target protein can be evaluated, which is used for the screening of AAK1 protein inhibitors.
(§1) Expression of AAK1 (30-330) protein: The AAK1 sequence (residues 30-330) was cloned into the pET24N vector with an N-terminal (His)6x tag and a tobacco etch virus (TEV) protease cleavage site. The constructed vector was transformed into Escherichia coli BL21(DE3). When the bacteria were cultured with shaking to reach an OD value of 0.6, 1 mM IPTG was added. […] The bacterial cells were collected and subjected to ultrasonic disruption. The supernatant was obtained by centrifugation, and the protein was purified using Ni-NTA. After dialysis, the concentration and purity of the protein were determined.
CETSA sample preparation: Samples were incubated with candidate drugs, control drugs, and control reagents separately for 30 minutes. Each group of samples was heated at approximately 10 pre-set temperature points. After being returned to room temperature, the samples were centrifuged at 20000 g, and the supernatants were collected. Protein samples were denatured by heating at 100°C for 10 minutes with a sample buffer. After the samples were returned to room temperature, Western blot detection was performed on them; the protein loading amount was controlled at 20 µg. […] The same operations were followed, and Western blot detection was conducted. Protein electrophoresis: The voltage for the stacking gel was set at 60 V, and that for the separating gel was set at 120 V. After electrophoresis, electrotransfer was initiated. Electrotransfer conditions were set at 250 mA for 2 h. Blocking with 5% BSA was performed for 1 h. A specific primary antibody was added, and incubation was carried out overnight at 4°C on a shaker. Washing with TBST was conducted 4 times, with 2.5 minutes each time. A secondary antibody was incubated on a shaker at room temperature for 1 h. Washing with TBST was conducted 4 times, with 2.5 minutes each time. ECL was used for development to detect the expression levels of AAK1 protein in different groups and at each temperature point. Western blot bands were processed and converted using Image J and GraphPad software to calculate EC50.

AAK1 (30-330) protein [2] = biological target: T2, AAK1 (30-330) protein; test: AAK1 kinase assay (ADP generated, detected by HPLC); assay type: biochemical; conditions: 3.5 nM AAK1, 22 µM ATP, 25°C, 3 h
From the text: Experimental objective: The objective of this test example is to test the effect of compounds on AAK1 kinase function.
Background principle: AAK1 phosphorylates the threonine residue in the micro-subunit of AP2 (AP2M1). In this process, ATP provides phosphate groups to generate ADP. Therefore, the activity of AAK1 kinase can be evaluated by detecting the amount of ADP generated.
as §1
The reaction mixture was incubated in a metal bath at 25°C for 3 h. The reaction was terminated by adding 1% SDS, and the amount of ADP generated was detected by HPLC. IC50 values were calculated using GraphPad software.

Row | Compound | pIC50 (AAK1) | pEC50 (AAK1 (30-330) protein [1]) | pIC50 (AAK1 (30-330) protein [2])
1 | CC(C)C[C@@](C)(N)COc1ccc(-c2cncc3[nH]c(C(F)(F)F)nc23)nc1C(F)F [Compound 13] | 7.00 to 8.00 | 7.00 to 8.00 | 6.78
2 | CC(C)C[C@](C)(N)COc1ccc(-c2cncc3[nH]c(C(F)(F)F)nc23)nc1C(F)F [Compound 12] | 7.00 to 8.00 | 7.00 to 8.00 | 7.00
3 | CC(C)C[C@@](C)(N)COc1ccc(-c2ccnc3[nH]c(C(F)(F)F)nc23)nc1C(F)F [Compound 9] | 7.00 to 8.00 | 7.00 to 8.00 | 7.00
4 | CC(C)C[C@](C)(N)COc1ccc(-c2c[nH]c3ncc(C#N)cc23)nc1C(F)F [Compound 27] | 6.00 to 7.00 | 7.00 to 8.00 | 7.24
5 | CC(C)C[C@](C)(N)COc1ccc(-c2ccnc3[nH]c(C(F)(F)F)nc23)nc1C(F)F [Compound 8] | 7.00 to 8.00 | 7.00 to 8.00 | 6.89
6 | CC(C)C[C@@](C)(N)COc1ccc(-c2ccnc3ccnn23)nc1C(F)F [Compound 1, (R)-1-{[2-(difluoromethyl)-6-(pyrazolo[1,5-a]pyrimidin-7-yl)pyridin-3-yl]oxy}-2,4-dimet hylpentan-2-amine] | 7.00 to 8.00 | 7.00 to 8.00 | 7.49
7 | Cc1cnc2[nH]cc(-c3ccc(OC[C@@](C)(N)CC(C)C)c(C(F)F)n3)c2c1 [Compound 45, (S)-1-{[2-(difluoromethyl)-6-(5-methyl-1H-pyrrolo[2,3-b]pyridin-3-yl)pyridin-3-yl]oxy}-2,4-dimethylpentan-2-amine diformate] | > 8.00 | > 8.00 | 8.19
8 | CC(C)C[C@](C)(N)COc1ccc(-c2c[nH]c3ncc(C(F)F)cc23)nc1C(F)F [Compound 28, (S)-1-{[2-(difluoromethyl)-6-[5-(difluoromethyl)-1H-pyrrolo[2,3-b]pyridin-3-yl]pyridin-3-yl]oxy}-2,4-dimethylpentan-2-amine formate] | 7.00 to 8.00 | 7.00 to 8.00 | 7.19
9 | CC(C)C[C@](C)(N)COc1ccc(-c2cn(C)c3ncc(F)cc23)nc1C(F)F [Compound 43, (S)-1-{[2-(difluoromethyl)-6-(5-fluoro-1-methyl-1H-pyrrolo[2,3-b]pyridin-3-yl)pyridin-3-yl]oxy}-2,4-dimethylpentan-2-amine] | > 8.00 | > 8.00 | 7.92
10 | CC(C)C[C@](C)(N)COc1ccc(-c2ccnc3[nH]cnc23)nc1C(F)F [Compound 6] | 7.00 to 8.00 | 7.00 to 8.00 | 7.12
11 | CC(C)C[C@@](C)(N)COc1ccc(-c2c[nH]c3nc(C(F)(F)F)ccc23)nc1C(F)F [Compound 5] | 7.00 to 8.00 | 7.00 to 8.00 | 7.06
12 | CC(C)C[C@](C)(N)COc1ccc(-c2c[nH]c3ncccc23)nc1C(F)F [Compound 3] | 7.00 to 8.00 | 7.00 to 8.00 | 7.67
13 | CC(C)C[C@](C)(N)COc1ccc(-c2ccnc3c(F)cnn23)nc1C(F)F [Compound 18] | 7.00 to 8.00 | 7.00 to 8.00 | 7.37
14 | CC(C)C[C@@](C)(N)COc1ccc(-c2c[nH]c3ncccc23)nc1C(F)F [Compound 2, (R)-1-{[2-(difluoromethyl)-6-(1H-pyrrolo[2,3-b]pyridin-3-yl)pyridin-3-yl]oxy}-2,4-dimet hylpentan-2-amine] | 7.00 to 8.00 | 7.00 to 8.00 | 7.55
15 | CC(C)C[C@@](C)(N)COc1ccc(-c2c[nH]c3nc(F)ccc23)nc1C(F)F [Compound 15] | 7.00 to 8.00 | 7.00 to 8.00 | 6.95
16 | CC(C)C[C@](C)(N)COc1ccc(-c2ccnc3c2nc(C(F)(F)F)n3C)nc1C(F)F [Compound 10] | 7.00 to 8.00 | 7.00 to 8.00 | 6.82
17 | Cc1nc2ccnn2c(-c2ccc(OC[C@@](C)(N)CC(C)C)c(C(F)F)n2)c1F [Compound 20] | 7.00 to 8.00 | 7.00 to 8.00 | 6.99
18 | CC(C)C[C@](C)(N)COc1ncc(-c2c[nH]c3ncc(C(F)F)cc23)c(C(F)(F)F)n1 [Compound 39] | 7.00 to 8.00 | 7.00 to 8.00 | 6.99
19 | Cc1nc2ccnn2c(-c2ccc(OC[C@](C)(N)CC(C)C)c(C(F)F)n2)c1F [Compound 21] | 7.00 to 8.00 | 6.00 to 7.00 | 6.72
20 | CC(C)C[C@](C)(N)COc1ccc(-c2ccnc3c(C(=O)O)cnn23)nc1C1CC1 [Compound 22] | 7.00 to 8.00 | 6.00 to 7.00 | 6.77
21 | COc1ccnc2[nH]cc(-c3ccc(OC[C@@](C)(N)CC(C)C)c(C(F)F)n3)c12 [Compound 16, (S)-1-{[2-(difluoromethyl)-6-(4-methoxy-1H-pyrrolo[2,3-b]pyridin-3-yl)pyridin-3-yl]oxy}-2,4-dimethylpentan-2-amine tris(trifluoroacetate)] | 7.00 to 8.00 | 7.00 to 8.00 | 7.06
22 | CC(C)C[C@](C)(N)COc1ccc(-c2c[nH]c3nc(F)ccc23)nc1C(F)F [Compound 14] | 7.00 to 8.00 | 7.00 to 8.00 | 6.99
